ChEMBL document CHEMBL5241117, “Current leishmaniasis drug discovery” (RSC Med Chem, 2022)

Assays:
[1] = tested on: Leishmania donovani; experiment: Antileishmanial activity against Leishmania donovani; type: functional, organism-based
[2] = Cytotoxicity against human THP-1 cells; type: toxicity, cell-based
[3] = tested on: Leishmania donovani; experiment: Antileishmanial activity against Leishmania donovani infected in mouse model of visceral leishmaniasis assessed as reduction in parasite load at 25 mg/kg, po administered for 10 days; type: functional; parameters: scale not given: the % may be the effect or the level left; details: time 10 day
[4] = tested on: Leishmania donovani; experiment: Antileishmanial activity against Leishmania donovani infected in mouse model of visceral leishmaniasis assessed as reduction in parasite load; type: functional; parameters: scale not given: the % may be the effect or the level left

Row | Structure (SMILES) | EC50 [1] | EC50 [2] | Activity [3] | Activity [4]
1 | C[C@H]1CN(c2n[nH]c3nc(N[C@H]4CC[C@H](NS(=O)(=O)CCC(F)(F)F)CC4)ncc23)CCO1 [GSK-3186899] | 1400 nM | > 50 µM | 99% | –
2 | O=C(Nc1ccc(F)c(-c2ccn3c(N4CCOCC4)cnc3n2)c1)N1CCCC1 [GSK-3494245] | – | – | – | 95%
3 | CCCCCCCCCCCCCCCCOP(=O)([O-])OCC[N+](C)(C)C [MILTEFOSINE] | 900 nM | – | – | –
4 | NC[C@@H]1O[C@H](O[C@H]2[C@@H](O)[C@H](O[C@@H]3[C@@H](O)[C@H](N)C[C@H](N)[C@H]3O[C@H]3O[C@H](CO)[C@@H](O)[C@H](O)[C@H]3N)O[C@@H]2CO)[C@H](N)[C@@H](O)[C@@H]1O [PAROMOMYCIN] | 6600 nM | – | – | –
